Measurements taken from patent publication US20030153546A1, “Microbicidal effect of prophyrines in darkness” (priority 1999, published 2003).

Legend:
Assay type in all cases: cell-based
E. coli cells [1] = experiment: Recovery of porphyrine bonded to E. coli cells after dark incubation and washing steps; details: 1 μM porphyrine, 5 minutes
Description: (§1) For this, porphyrines of different chemical structures (see drawing) were incubated with E. coli and S. aureus cells in the dark. The porphyrines were added to aqueous suspension comprising an amount of bacterial cells of 10^8 per ml and stored for 5 minutes in the dark. Finally, the amount of porphyrine bonded to the cells was measured depending on the number of washing […] (the washing was carried out by means of physiological solutions) by chemical extraction followed spectrophotofluorimetric determination.

S. aureus cells [2] = experiment: Recovery of porphyrine bonded to S. aureus cells after dark incubation and washing steps; details: 1 μM porphyrine, 5 minutes in the dark
Description: as §1

E. coli cells [3] = experiment: Inhibition of growth of E. coli cells after 5-minute incubation in the dark (optical density at 650 nm); details: growth at 37° C
Description: as §1
(§2) The survival rate of the bacterial cells after incubation with the different porphyrines was determined by diluting 0.3 ml of the suspension with 2.7 ml of the culture medium and recording the optical density at 650 nm depending on the time. The suspensions were kept at 37° C. The percentual inhibition of growth was calculated with reference to a suspension of comparative cells which had been treated with the same method, however had not been added to the porphyrine.

S. aureus cells [4] = experiment: Inhibition of growth of S. aureus cells after 5-minute incubation in the dark (optical density at 650 nm); details: growth at 37° C
Description: as §1, §2

CCCCCCCCCCCCCC[n+]1ccc(-c2c3nc(c(-c4cc[n+](C)cc4)c4ccc([nH]4)c(-c4cc[n+](C)cc4)c4nc(c(-c5cc[n+](C)cc5)c5ccc2[nH]5)C=C4)C=C3)cc1 [mono-C14] was tested, and the “recovery (nmol/mg protein) 1 washing step” value (E. coli cells [1]) was 3.06 ± 0.25 nmol/mg protein, the “recovery (nmol/mg protein) 3 washing steps” value (E. coli cells [1]) was 2.28 ± 0.04 nmol/mg protein and the “% bonded after 3 washing steps” value (E. coli cells [1]) was 42.4%. For the same molecule, the “recovery (nmol/mg protein) no washing” value (E. coli cells [1]) was 5.38 ± 0.06 nmol/mg protein, the “recovery (nmol/mg protein) 1 washing step” value (S. aureus cells [2]) was 5.53 ± 0.74 nmol/mg protein and the “recovery (nmol/mg protein) 3 washing steps” value (S. aureus cells [2]) was 4.32 ± 0.13 nmol/mg protein. For the same molecule, the “% bonded after 3 washing steps” value (S. aureus cells [2]) was 65.9%, the “recovery (nmol/mg protein) no washing” value (S. aureus cells [2]) was 6.56 ± 0.40 nmol/mg protein and the “inhibition of growth (%) E. coli” value (E. coli cells [3]; 1 μM porphyrine) was 46.1%. For the same molecule, the “inhibition of growth (%) E. coli” value (E. coli cells [3]; 10 μM porphyrine) was 100%, the “inhibition of growth (%) S. aureus” value (S. aureus cells [4]; 1 μM porphyrine) was 69.1% and the “inhibition of growth (%) S. aureus” value (S. aureus cells [4]; 10 μM porphyrine) was 92.4%.
In the case of CCCCCCCCCCCCCCCCCC[n+]1ccc(-c2c3nc(c(-c4cc[n+](C)cc4)c4ccc([nH]4)c(-c4cc[n+](C)cc4)c4nc(c(-c5cc[n+](C)cc5)c5ccc2[nH]5)C=C4)C=C3)cc1 [mono-C18], the “recovery (nmol/mg protein) 1 washing step” value (E. coli cells [1]) is reported as 4.08 ± 0.62 nmol/mg protein, the “recovery (nmol/mg protein) 3 washing steps” value (E. coli cells [1]) is reported as 2.54 ± 0.38 nmol/mg protein and the “% bonded after 3 washing steps” value (E. coli cells [1]) is reported as 60.5%. The “recovery (nmol/mg protein) no washing” value (E. coli cells [1]) was 4.20 ± 0.16 nmol/mg protein, the “inhibition of growth (%) E. coli” value (E. coli cells [3]; 1 μM porphyrine) was 2.7% and the “inhibition of growth (%) E. coli” value (E. coli cells [3]; 10 μM porphyrine) was 85.7%. The “inhibition of growth (%) S. aureus” value (S. aureus cells [4]; 1 μM porphyrine) was 39.8% and the “inhibition of growth (%) S. aureus” value (S. aureus cells [4]; 10 μM porphyrine) was 96.6%.
For CCCCCCCCCCCCCCCCCCCCCC[n+]1ccc(-c2c3nc(c(-c4cc[n+](C)cc4)c4ccc([nH]4)c(-c4cc[n+](C)cc4)c4nc(c(-c5cc[n+](C)cc5)c5ccc2[nH]5)C=C4)C=C3)cc1 [mono-C22], the “recovery (nmol/mg protein) 1 washing step” value (E. coli cells [1]) was 2.60 ± 0.04 nmol/mg protein, the “recovery (nmol/mg protein) 3 washing steps” value (E. coli cells [1]) was 3.04 ± 0.34 nmol/mg protein and the “% bonded after 3 washing steps” value (E. coli cells [1]) was 59.4%. For the same molecule, the “recovery (nmol/mg protein) no washing” value (E. coli cells [1]) was 5.12 ± 0.46 nmol/mg protein, the “recovery (nmol/mg protein) 1 washing step” value (S. aureus cells [2]) was 5.65 ± 0.13 nmol/mg protein and the “recovery (nmol/mg protein) 3 washing steps” value (S. aureus cells [2]) was 4.95 ± 0.30 nmol/mg protein. For the same molecule, the “% bonded after 3 washing steps” value (S. aureus cells [2]) was 77.5%, the “recovery (nmol/mg protein) no washing” value (S. aureus cells [2]) was 6.39 ± 0.40 nmol/mg protein and the “inhibition of growth (%) E. coli” value (E. coli cells [3]; 1 μM porphyrine) was 19.1%. The “inhibition of growth (%) E. coli” value (E. coli cells [3]; 10 μM porphyrine) was 16.8%, the “inhibition of growth (%) S. aureus” value (S. aureus cells [4]; 1 μM porphyrine) was 39.9% and the “inhibition of growth (%) S. aureus” value (S. aureus cells [4]; 10 μM porphyrine) was 70.1%.
With C[n+]1ccc(-c2c3nc(c(-c4cc[n+](C)cc4)c4ccc([nH]4)c(-c4cc[n+](C)cc4)c4nc(c(-c5cc[n+](C)cc5)c5ccc2[nH]5)C=C4)C=C3)cc1 [T4MPyP] the “recovery (nmol/mg protein) 1 washing step” value (E. coli cells [1]) was 0.19 ± 0.04 nmol/mg protein, the “recovery (nmol/mg protein) 3 washing steps” value (E. coli cells [1]) was 0.05 ± 0.01 nmol/mg protein and the “% bonded after 3 washing steps” value (E. coli cells [1]) was 11.4%. For the same molecule, the “recovery (nmol/mg protein) no washing” value (E. coli cells [1]) was 0.44 ± 0.04 nmol/mg protein, the “recovery (nmol/mg protein) 1 washing step” value (S. aureus cells [2]) was 0.10 ± 0.01 nmol/mg protein and the “recovery (nmol/mg protein) 3 washing steps” value (S. aureus cells [2]) was 0.11 ± 0.01 nmol/mg protein. For the same molecule, the “% bonded after 3 washing steps” value (S. aureus cells [2]) was 16.2%, the “recovery (nmol/mg protein) no washing” value (S. aureus cells [2]) was 0.68 ± 0.05 nmol/mg protein and the “inhibition of growth (%) E. coli” value (E. coli cells [3]; 1 μM porphyrine) was 0.6%. For the same molecule, the “inhibition of growth (%) E. coli” value (E. coli cells [3]; 10 μM porphyrine) was 3.1%, the “inhibition of growth (%) S. aureus” value (S. aureus cells [4]; 1 μM porphyrine) was 3.1% and the “inhibition of growth (%) S. aureus” value (S. aureus cells [4]; 10 μM porphyrine) was 7.8%.
For C[n+]1ccc(-c2c3nc(c(-c4cc[n+](C)cc4)c4ccc([nH]4)c(-c4cc[n+](Cc5ccccc5)cc4)c4nc(c(-c5cc[n+](C)cc5)c5ccc2[nH]5)C=C4)C=C3)cc1 [mono-benzyl], the “recovery (nmol/mg protein) 1 washing step” value (E. coli cells [1]) was 1.67 ± 0.06 nmol/mg protein, the “recovery (nmol/mg protein) 3 washing steps” value (E. coli cells [1]) was 0.71 ± 0.08 nmol/mg protein and the “% bonded after 3 washing steps” value (E. coli cells [1]) was 28.2%. For the same molecule, the “recovery (nmol/mg protein) no washing” value (E. coli cells [1]) was 2.52 ± 0.13 nmol/mg protein, the “inhibition of growth (%) E. coli” value (E. coli cells [3]; 1 μM porphyrine) was 0.1% and the “inhibition of growth (%) E. coli” value (E. coli cells [3]; 10 μM porphyrine) was 13%. For the same molecule, the “inhibition of growth (%) S. aureus” value (S. aureus cells [4]; 1 μM porphyrine) was 1.6% and the “inhibition of growth (%) S. aureus” value (S. aureus cells [4]; 10 μM porphyrine) was 25%.
In the case of CCCCCC[n+]1ccc(-c2c3nc(c(-c4cc[n+](C)cc4)c4ccc([nH]4)c(-c4cc[n+](C)cc4)c4nc(c(-c5cc[n+](C)cc5)c5ccc2[nH]5)C=C4)C=C3)cc1 [mono-C6], the “recovery (nmol/mg protein) 1 washing step” value (E. coli cells [1]) is reported as 1.01 ± 0.12 nmol/mg protein, the “recovery (nmol/mg protein) 3 washing steps” value (E. coli cells [1]) is reported as 0.39 ± 0.12 nmol/mg protein and the “% bonded after 3 washing steps” value (E. coli cells [1]) is reported as 24.7%. The “recovery (nmol/mg protein) no washing” value (E. coli cells [1]) was 1.58 ± 0.28 nmol/mg protein, the “recovery (nmol/mg protein) 1 washing step” value (S. aureus cells [2]) was 2.05 ± 0.11 nmol/mg protein and the “recovery (nmol/mg protein) 3 washing steps” value (S. aureus cells [2]) was 1.02 ± 0.12 nmol/mg protein. The “% bonded after 3 washing steps” value (S. aureus cells [2]) was 33.6%, the “recovery (nmol/mg protein) no washing” value (S. aureus cells [2]) was 3.04 ± 0.05 nmol/mg protein and the “inhibition of growth (%) E. coli” value (E. coli cells [3]; 1 μM porphyrine) was 0.5%. For the same molecule, the “inhibition of growth (%) E. coli” value (E. coli cells [3]; 10 μM porphyrine) was 14.6%, the “inhibition of growth (%) S. aureus” value (S. aureus cells [4]; 1 μM porphyrine) was 5.1% and the “inhibition of growth (%) S. aureus” value (S. aureus cells [4]; 10 μM porphyrine) was 8.8%.
For CCCCCCCCCC[n+]1ccc(-c2c3nc(c(-c4cc[n+](C)cc4)c4ccc([nH]4)c(-c4cc[n+](C)cc4)c4nc(c(-c5cc[n+](C)cc5)c5ccc2[nH]5)C=C4)C=C3)cc1 [mono-C10], the “recovery (nmol/mg protein) 1 washing step” value (E. coli cells [1]) was 2.78 ± 0.53 nmol/mg protein, the “recovery (nmol/mg protein) 3 washing steps” value (E. coli cells [1]) was 1.48 ± 0.38 nmol/mg protein and the “% bonded after 3 washing steps” value (E. coli cells [1]) was 40.4%. For the same molecule, the “recovery (nmol/mg protein) no washing” value (E. coli cells [1]) was 3.66 ± 0.071 nmol/mg protein, the “recovery (nmol/mg protein) 1 washing step” value (S. aureus cells [2]) was 5.70 ± 0.54 nmol/mg protein and the “recovery (nmol/mg protein) 3 washing steps” value (S. aureus cells [2]) was 4.09 ± 0.13 nmol/mg protein. For the same molecule, the “% bonded after 3 washing steps” value (S. aureus cells [2]) was 57.4%, the “recovery (nmol/mg protein) no washing” value (S. aureus cells [2]) was 7.13 ± 0.25 nmol/mg protein and the “inhibition of growth (%) E. coli” value (E. coli cells [3]; 1 μM porphyrine) was 4.6%. For the same molecule, the “inhibition of growth (%) E. coli” value (E. coli cells [3]; 10 μM porphyrine) was 10.7%, the “inhibition of growth (%) S. aureus” value (S. aureus cells [4]; 1 μM porphyrine) was 27.8% and the “inhibition of growth (%) S. aureus” value (S. aureus cells [4]; 10 μM porphyrine) was 50%.
For CCCCCC[n+]1ccc(-c2c3nc(c(-c4cc[n+](CCCCCC)cc4)c4ccc([nH]4)c(-c4cc[n+](CCCCCC)cc4)c4nc(c(-c5cc[n+](CCCCCC)cc5)c5ccc2[nH]5)C=C4)C=C3)cc1 [tetra-C6], the “recovery (nmol/mg protein) 1 washing step” value (E. coli cells [1]) was 1.39 ± 0.23 nmol/mg protein, the “recovery (nmol/mg protein) 3 washing steps” value (E. coli cells [1]) was 0.94 ± 0.24 nmol/mg protein and the “% bonded after 3 washing steps” value (E. coli cells [1]) was 57.0%. For the same molecule, the “recovery (nmol/mg protein) no washing” value (E. coli cells [1]) was 1.65 ± 0.17 nmol/mg protein.
